Assays:
Assay in all cases: radiometric filter-binding kinase assay, Kinase HotSpot
Conditions in all cases: compound 0.5 µM; ATP 10 µM
EPHA7 (human) = EPHA7 (human) (UniProt Q15375)
INSR (human) = INSR (human) (UniProt P06213)
ACVR1B (human) = ACVR1B (human) (UniProt P36896)
SYK (human) = SYK (human) (UniProt P43405)
MAP3K11 (human) = MAP3K11 (human) (UniProt Q16584)
FRK (human) = FRK (human) (UniProt P42685)
DYRK2 (human) = DYRK2 (human) (UniProt Q92630)
STK3 (human) = STK3 (human) (UniProt Q13188)
EPHB4 (human) = EPHB4 (human) (UniProt P54760)
BMX (human) = BMX (human) (UniProt P51813)
FGFR1 (human) = FGFR1 (human) (UniProt P11362)
PIM1 (human) = PIM1 (human) (UniProt P11309)
PIM1 (human), sequence (P11309 whole entry, looked up): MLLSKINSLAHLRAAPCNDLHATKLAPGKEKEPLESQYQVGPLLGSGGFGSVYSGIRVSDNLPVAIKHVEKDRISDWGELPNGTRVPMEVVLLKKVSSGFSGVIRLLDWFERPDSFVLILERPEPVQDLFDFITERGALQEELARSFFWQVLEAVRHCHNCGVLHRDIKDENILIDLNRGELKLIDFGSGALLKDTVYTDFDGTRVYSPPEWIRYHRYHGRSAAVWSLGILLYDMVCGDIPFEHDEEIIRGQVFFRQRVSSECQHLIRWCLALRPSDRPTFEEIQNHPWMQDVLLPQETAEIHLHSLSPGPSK

CDK2 CCNE1 (human) = CDK2 CCNE1 (human) (UniProt P24941+P24864)
CDK2 CCNE1 (human), sequence (P24864 whole entry, looked up, other chains not shown): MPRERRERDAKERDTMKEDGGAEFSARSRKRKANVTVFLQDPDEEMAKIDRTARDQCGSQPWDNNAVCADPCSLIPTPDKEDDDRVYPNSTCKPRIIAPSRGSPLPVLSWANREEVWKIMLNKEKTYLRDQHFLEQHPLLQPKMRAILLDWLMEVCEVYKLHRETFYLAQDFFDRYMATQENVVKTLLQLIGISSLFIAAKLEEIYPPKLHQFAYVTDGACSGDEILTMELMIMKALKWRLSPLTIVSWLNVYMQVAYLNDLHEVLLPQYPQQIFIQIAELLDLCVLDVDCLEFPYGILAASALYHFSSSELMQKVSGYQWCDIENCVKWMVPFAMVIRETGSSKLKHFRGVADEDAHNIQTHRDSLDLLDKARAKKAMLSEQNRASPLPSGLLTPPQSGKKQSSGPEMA

DAPK2 (human) = DAPK2 (human) (UniProt Q9UIK4)
PRKCD (human) = PRKCD (human) (UniProt Q05655)
PRKCG (human) = PRKCG (human) (UniProt P05129)
MAPKAPK3 (human) = MAPKAPK3 (human) (UniProt Q16644)
MAPKAPK3 (human), sequence (Q16644 whole entry, looked up): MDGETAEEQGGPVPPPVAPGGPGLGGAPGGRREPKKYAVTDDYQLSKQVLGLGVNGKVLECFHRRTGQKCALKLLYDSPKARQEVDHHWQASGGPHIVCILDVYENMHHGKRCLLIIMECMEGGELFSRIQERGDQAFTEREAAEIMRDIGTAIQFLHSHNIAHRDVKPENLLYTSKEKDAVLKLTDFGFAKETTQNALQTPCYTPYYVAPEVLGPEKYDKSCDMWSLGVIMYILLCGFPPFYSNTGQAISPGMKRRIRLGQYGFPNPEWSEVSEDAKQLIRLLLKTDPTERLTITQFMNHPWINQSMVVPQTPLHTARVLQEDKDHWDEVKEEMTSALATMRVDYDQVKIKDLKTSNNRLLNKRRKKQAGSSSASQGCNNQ

DMPK (human) = DMPK (human) (UniProt Q09013)
FLT3 (human) = FLT3 (human) (UniProt P36888)
GRK4 (human) = GRK4 (human) (UniProt P32298)
RPS6KA2 KD1 KD2 (human) = RPS6KA2 KD1 KD2 (human) (UniProt Q15349)
AURKC (human) = AURKC (human) (UniProt Q9UQB9)
AURKC (human), sequence (Q9UQB9 whole entry, looked up): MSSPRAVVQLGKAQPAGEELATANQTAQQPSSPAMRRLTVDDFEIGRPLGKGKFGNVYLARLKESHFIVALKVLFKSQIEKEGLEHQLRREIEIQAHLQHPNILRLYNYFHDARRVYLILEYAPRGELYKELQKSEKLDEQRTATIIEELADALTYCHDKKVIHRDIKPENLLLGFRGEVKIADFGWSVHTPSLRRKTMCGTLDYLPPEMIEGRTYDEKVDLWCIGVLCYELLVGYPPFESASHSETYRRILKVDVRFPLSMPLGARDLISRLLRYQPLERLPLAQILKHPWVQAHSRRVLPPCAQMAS

IGF1R (human) = IGF1R (human) (UniProt P08069)
IGF1R (human), sequence (P08069 whole entry, looked up): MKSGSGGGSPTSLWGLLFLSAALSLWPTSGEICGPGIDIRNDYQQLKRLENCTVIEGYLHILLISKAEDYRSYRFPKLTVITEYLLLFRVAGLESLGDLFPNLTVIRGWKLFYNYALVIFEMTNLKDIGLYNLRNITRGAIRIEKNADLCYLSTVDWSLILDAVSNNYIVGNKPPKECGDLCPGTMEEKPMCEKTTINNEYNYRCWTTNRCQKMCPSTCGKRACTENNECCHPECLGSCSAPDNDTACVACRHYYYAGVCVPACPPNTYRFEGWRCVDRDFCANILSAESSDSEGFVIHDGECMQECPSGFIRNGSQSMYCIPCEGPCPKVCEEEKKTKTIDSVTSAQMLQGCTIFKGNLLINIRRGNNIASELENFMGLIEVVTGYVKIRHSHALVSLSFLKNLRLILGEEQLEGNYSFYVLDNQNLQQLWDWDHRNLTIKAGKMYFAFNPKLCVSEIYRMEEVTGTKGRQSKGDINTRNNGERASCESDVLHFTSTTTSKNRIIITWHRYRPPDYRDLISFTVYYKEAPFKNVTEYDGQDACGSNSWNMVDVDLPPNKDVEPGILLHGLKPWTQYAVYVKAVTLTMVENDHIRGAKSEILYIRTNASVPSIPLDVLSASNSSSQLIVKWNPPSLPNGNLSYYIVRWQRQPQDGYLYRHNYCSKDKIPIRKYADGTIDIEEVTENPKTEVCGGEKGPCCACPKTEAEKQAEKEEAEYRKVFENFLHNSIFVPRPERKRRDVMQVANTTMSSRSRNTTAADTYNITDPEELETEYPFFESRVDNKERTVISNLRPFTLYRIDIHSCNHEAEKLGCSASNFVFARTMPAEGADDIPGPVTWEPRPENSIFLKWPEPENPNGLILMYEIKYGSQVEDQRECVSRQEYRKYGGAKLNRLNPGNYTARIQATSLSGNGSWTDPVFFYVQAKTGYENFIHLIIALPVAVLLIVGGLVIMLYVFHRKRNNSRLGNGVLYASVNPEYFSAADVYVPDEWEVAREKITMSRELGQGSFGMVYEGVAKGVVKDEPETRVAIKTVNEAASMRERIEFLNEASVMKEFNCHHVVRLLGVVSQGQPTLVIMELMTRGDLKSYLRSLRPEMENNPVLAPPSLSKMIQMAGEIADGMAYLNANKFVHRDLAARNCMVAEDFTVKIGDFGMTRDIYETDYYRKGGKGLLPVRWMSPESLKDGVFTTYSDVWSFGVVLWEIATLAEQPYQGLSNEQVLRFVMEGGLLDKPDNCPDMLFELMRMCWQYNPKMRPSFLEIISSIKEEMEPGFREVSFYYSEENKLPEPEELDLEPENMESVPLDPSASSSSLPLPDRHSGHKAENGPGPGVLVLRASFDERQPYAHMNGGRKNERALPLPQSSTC

YES1 (human) = YES1 (human) (UniProt P07947)
ROCK1 (human) = ROCK1 (human) (UniProt Q13464)
NEK1 (human) = NEK1 (human) (UniProt Q96PY6)
IKBKE (human) = IKBKE (human) (UniProt Q14164)
ADRBK1 (human) = ADRBK1 (human) (UniProt P25098)
PAK7 (human) = PAK7 (human) (UniProt Q9P286)
GSK3B (human) = GSK3B (human) (UniProt P49841)
MAP3K5 (human) = MAP3K5 (human) (UniProt Q99683)
EPHA5 (human) = EPHA5 (human) (UniProt P54756)
EPHA5 (human), sequence (P54756 whole entry, looked up): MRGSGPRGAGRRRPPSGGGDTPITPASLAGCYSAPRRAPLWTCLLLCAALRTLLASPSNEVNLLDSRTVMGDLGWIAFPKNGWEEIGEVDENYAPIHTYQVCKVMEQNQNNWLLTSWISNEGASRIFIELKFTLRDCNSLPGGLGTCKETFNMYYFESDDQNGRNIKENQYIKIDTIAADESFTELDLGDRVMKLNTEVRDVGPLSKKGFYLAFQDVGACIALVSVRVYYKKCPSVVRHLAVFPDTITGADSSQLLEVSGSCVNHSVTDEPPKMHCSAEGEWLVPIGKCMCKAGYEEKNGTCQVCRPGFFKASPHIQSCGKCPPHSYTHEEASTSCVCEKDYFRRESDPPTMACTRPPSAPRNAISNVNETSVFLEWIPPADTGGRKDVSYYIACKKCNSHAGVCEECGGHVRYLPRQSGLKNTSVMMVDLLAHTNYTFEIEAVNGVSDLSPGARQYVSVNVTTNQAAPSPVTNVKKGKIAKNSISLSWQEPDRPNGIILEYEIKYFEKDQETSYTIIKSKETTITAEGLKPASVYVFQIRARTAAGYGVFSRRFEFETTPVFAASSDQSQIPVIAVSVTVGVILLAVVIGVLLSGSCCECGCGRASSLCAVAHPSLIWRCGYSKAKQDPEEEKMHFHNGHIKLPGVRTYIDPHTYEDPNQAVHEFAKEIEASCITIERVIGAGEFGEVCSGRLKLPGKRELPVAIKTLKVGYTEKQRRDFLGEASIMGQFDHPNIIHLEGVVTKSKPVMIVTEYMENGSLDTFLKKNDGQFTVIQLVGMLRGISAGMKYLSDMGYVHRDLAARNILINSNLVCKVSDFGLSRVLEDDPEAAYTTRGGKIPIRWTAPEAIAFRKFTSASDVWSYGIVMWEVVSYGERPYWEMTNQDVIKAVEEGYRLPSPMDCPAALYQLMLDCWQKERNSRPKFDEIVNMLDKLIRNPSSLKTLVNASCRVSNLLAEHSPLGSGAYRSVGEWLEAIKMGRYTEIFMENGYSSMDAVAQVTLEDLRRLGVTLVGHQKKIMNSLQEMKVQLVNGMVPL

CAMK1 (human) = CAMK1 (human) (UniProt Q14012)

FRK (human), sequence (P42685 whole entry, looked up): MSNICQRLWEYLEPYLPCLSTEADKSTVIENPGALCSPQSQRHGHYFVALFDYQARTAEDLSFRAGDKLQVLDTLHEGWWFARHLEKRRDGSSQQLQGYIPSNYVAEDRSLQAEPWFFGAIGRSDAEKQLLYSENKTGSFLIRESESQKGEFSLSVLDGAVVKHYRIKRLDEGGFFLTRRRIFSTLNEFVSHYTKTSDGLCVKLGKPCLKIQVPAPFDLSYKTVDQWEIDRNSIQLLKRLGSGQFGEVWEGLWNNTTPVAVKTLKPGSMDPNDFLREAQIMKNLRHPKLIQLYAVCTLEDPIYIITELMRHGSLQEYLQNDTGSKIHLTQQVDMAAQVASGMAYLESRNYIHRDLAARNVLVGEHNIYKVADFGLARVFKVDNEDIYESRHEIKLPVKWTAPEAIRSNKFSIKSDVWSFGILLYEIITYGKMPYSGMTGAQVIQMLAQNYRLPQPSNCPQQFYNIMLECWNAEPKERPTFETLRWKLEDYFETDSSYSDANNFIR

Compound	residual activity (EPHA7 (human)) [%]	residual activity (INSR (human)) [%]	residual activity (ACVR1B (human)) [%]	residual activity (SYK (human)) [%]	residual activity (MAP3K11 (human)) [%]	residual activity (FRK (human)) [%]	residual activity (DYRK2 (human)) [%]	residual activity (STK3 (human)) [%]	residual activity (EPHB4 (human)) [%]	residual activity (BMX (human)) [%]	residual activity (FGFR1 (human)) [%]	residual activity (PIM1 (human)) [%]	residual activity (CDK2 CCNE1 (human)) [%]	residual activity (DAPK2 (human)) [%]	residual activity (PRKCD (human)) [%]	residual activity (PRKCG (human)) [%]	residual activity (MAPKAPK3 (human)) [%]	residual activity (DMPK (human)) [%]	residual activity (FLT3 (human)) [%]	residual activity (GRK4 (human)) [%]	further results
O=C(O)/C=C/c1cc(Br)c(Br)c(Br)c1Br	94.1	98.6	103	102	96.3	102	79.4	91.4	81.2	97	95.2	16.2	89.4	104	93.9	89.4	86.3	103	79	101	residual activity (RPS6KA2 KD1 KD2 (human)): 75.8%; residual activity (AURKC (human)): 90.3%; residual activity (IGF1R (human)): 96%; residual activity (YES1 (human)): 96.9%; residual activity (ROCK1 (human)): 97.6%; residual activity (NEK1 (human)): 85.4%; residual activity (IKBKE (human)): 96.8%; residual activity (ADRBK1 (human)): 97.9%; residual activity (PAK7 (human)): 90.6%; residual activity (GSK3B (human)): 105%; residual activity (MAP3K5 (human)): 94%; residual activity (EPHA5 (human)): 88.7%; residual activity (CAMK1 (human)): 105%
CC(C)c1nn(-c2c(Cl)cccc2Cl)c2nc(Cc3ccc(OCCO)cc3)nc(O)c12	97.9	100	109	98.6	101	89.6	100	93.5	90.7	104	84.2	99	8.6	88.3	108	81.1	89.2	99.3	74.2	97.3	residual activity (RPS6KA2 KD1 KD2 (human)): 80.8%; residual activity (AURKC (human)): 87.6%; residual activity (IGF1R (human)): 24.8%; residual activity (YES1 (human)): 86.3%; residual activity (ROCK1 (human)): 101%; residual activity (NEK1 (human)): 90.9%; residual activity (IKBKE (human)): 95.6%; residual activity (ADRBK1 (human)): 94.8%; residual activity (PAK7 (human)): 76.4%; residual activity (GSK3B (human)): 47.1%; residual activity (MAP3K5 (human)): 119%; residual activity (EPHA5 (human)): 110%; residual activity (CAMK1 (human)): 85.1%
O=C1Nc2ccccc2/C1=C1/Nc2ccccc2/C1=N\OCCC(O)CO (stereo not drawn)	71.4	44.9	110	38.6	10.5	49.7	61.4	4.81	72.2	40.2	27.9	59.7	23.1	104	80.6	92	98.9	99.5	1.07	74.7	residual activity (RPS6KA2 KD1 KD2 (human)): 12.1%; residual activity (AURKC (human)): 43.2%; residual activity (IGF1R (human)): 39.1%; residual activity (YES1 (human)): 13.4%; residual activity (ROCK1 (human)): 101%; residual activity (NEK1 (human)): 92.9%; residual activity (IKBKE (human)): 45.7%; residual activity (ADRBK1 (human)): 101%; residual activity (PAK7 (human)): 81%; residual activity (GSK3B (human)): 12.6%; residual activity (MAP3K5 (human)): 91.2%; residual activity (EPHA5 (human)): 68%; residual activity (CAMK1 (human)): 76%
CC(=O)O/N=C1\C(=C2\C(=O)Nc3cc(Br)ccc32)Nc2ccccc21	97.9	94.8	98.2	88.3	42.5	51.2	94.4	39.5	92.2	67.2	68.8	79.8	24.7	68.7	97	103	105	95.4	21.6	97.6	residual activity (RPS6KA2 KD1 KD2 (human)): 51%; residual activity (AURKC (human)): 86%; residual activity (IGF1R (human)): 106%; residual activity (YES1 (human)): 46.4%; residual activity (ROCK1 (human)): 94.6%; residual activity (NEK1 (human)): 94.7%; residual activity (IKBKE (human)): 81.4%; residual activity (ADRBK1 (human)): 108%; residual activity (PAK7 (human)): 89.1%; residual activity (GSK3B (human)): 14.3%; residual activity (MAP3K5 (human)): 95.8%; residual activity (EPHA5 (human)): 102%; residual activity (CAMK1 (human)): 102%
Cc1nc2cc3nc(-c4cccs4)cnc3cc2n1C	92.5	99.9	104	94.3	91.1	98.9	104	97.1	92.1	117	88.8	103	91.4	94.1	78.6	94.9	102	100	27.5	104	residual activity (RPS6KA2 KD1 KD2 (human)): 95%; residual activity (AURKC (human)): 93.3%; residual activity (IGF1R (human)): 96.4%; residual activity (YES1 (human)): 66.9%; residual activity (ROCK1 (human)): 97.8%; residual activity (NEK1 (human)): 94%; residual activity (IKBKE (human)): 89.8%; residual activity (ADRBK1 (human)): 83.7%; residual activity (PAK7 (human)): 114%; residual activity (GSK3B (human)): 109%; residual activity (MAP3K5 (human)): 98.9%; residual activity (EPHA5 (human)): 105%; residual activity (CAMK1 (human)): 98.1%
O=C1NC(=O)C(c2cn(CCCO)c3ncccc23)=C1c1cnccn1	105	92.9	100	60	80.8	88.3	81.7	74.4	95.2	97.8	81.2	43.9	85.1	88.4	97	93.1	103	99.6	87.8	90.1	residual activity (RPS6KA2 KD1 KD2 (human)): 73.2%; residual activity (AURKC (human)): 113%; residual activity (IGF1R (human)): 98.4%; residual activity (YES1 (human)): 80.1%; residual activity (ROCK1 (human)): 90.2%; residual activity (NEK1 (human)): 91.9%; residual activity (IKBKE (human)): 90%; residual activity (ADRBK1 (human)): 114%; residual activity (PAK7 (human)): 88.2%; residual activity (GSK3B (human)): 25.2%; residual activity (MAP3K5 (human)): 88.9%; residual activity (EPHA5 (human)): 99.4%; residual activity (CAMK1 (human)): 101%

Source: the kinase profiling compilation of Christmann-Franck et al. (2016)
